# According to patent US11400089B2, “Multikinase inhibitors and uses in reproductive and digestive tract fibrosis” (AIVIVA BIOPHARMA, INC., priority 2017, dated 2022):
# Columns and labels:
# TGFb-1 mRNA expression = experiment: TGFb1 mRNA expression in LL37-induced mice (Example 7); type: in vivo; conditions: single intradermal injection 1.6 mg, FIG. 12
# Method: (§1) In our study, mice were injected subcutaneously with 40 μL of LL-37 (3.3 mg/mL) to induce inflammatory reactions. Immediately following the LL-37 injection, axitinib, nintedanib, and lenvatinib were individually administered as a single intradermal injection (1.6 mg). LL-37 injection was repeated every 12 hours for a total of 4 injections. Endotoxin-free water and dexamethasone (3 mg/kg by intraperitoneal injection, twice), respectively, were used as negative and positive control groups.
# The TGFb1 mRNA expression in mice induced with LL37 and treated with lenvatinib was 79% of that challenged with LL37 alone (i.e., without treatment).
# [1] = test system: suture induced ocular fibrosis; experiment: suture induced ocular fibrosis model in rabbits (Example 4); type: in vivo
# Method: A study was conducted to determine the potential beneficial effects of topical administration of test compounds and vehicle in a suture induced ocular fibrosis model in rabbits. Sutures were placed intrastromally, under a microscope, in the cornea of rabbits. In each eye, one 9.0 silk suture was placed, in a vertical position, temporal to the center of the cornea and a second suture was placed nasal to the corneal center. Each suture had two stromal incursions approximately 2 mm from the limbus. Test compounds having a certain spectrum of multikinase inhibition activities or vehicle were topically instilled (35 μL/eye) in the eyes three times daily for 10 days following the day of surgery. The treatment groups include vehicle, axitinib (0.3%), nintedanib (0.3%), pirfenidone (1%), riociguat (0.3%), sorafenib (0.3%) and lenvatinib (0.3%). Six left eyes were used per treatment group.
# During the in-life phase, gross ocular observations of very slight to moderate conjunctival congestion and swelling were similar among groups, including the vehicle control. The animals were sacrificed on Day 11 and eyes enucleated and dissected for histopathological evaluation.
# [2] = test system: LL37-induced inflammation; experiment: intradermal LL37 injection-induced inflammation model in mice, histopathology (Example 7); type: in vivo; conditions: single intradermal injection 1.6 mg, FIG. 13
# Method: as §1
# At 48 hours after the initial LL-37 injection, the dorsal skin was photographed, and the severity of skin lesions were scored for redness and measured for areas of involvement.
# The tissue samples were analyzed for inflammation characteristics. Histopathology endpoints included inflammation, and CD4+ and CD8+ T-lymphocyte immunostaining. For inflammation scores, tissues were examined histologically and scored for inflammatory cell infiltrate.
# [3] = test system: testosterone and phenylephrine induced benign prostate hyperplasia; experiment: testosterone and phenylephrine induced benign prostate hyperplasia in rats (Example 3); type: in vivo, Male Wistar rats
# Method: This study was conducted to determine the effects of multikinase inhibitors and vehicle on testosterone and phenylephrine induced benign prostate hyperplasia in rats. Male Wistar rats were induced with testosterone (2 mg/kg) plus phenylephrine (5 mg/kg) administered daily by subcutaneous injection on days 5 through 32. Vehicle or test compounds (all 1% w/v), nintedanib, sunitinib or lenvatinib and doxazosin mesylate, were administered by intra-prostate injection (0.4 ml) in dorsolateral and ventral lobes on days 1 and 18. Animals were euthanized on day 32.
# At necropsy, the ventral and dorsolateral lobes of the prostate were separated and then cut into halves. The left halves were fixed in 10% neutral buffered formalin, sectioned, and stained with Hematoxylin and Eosin (H&E). Histological changes in these sections were scored. Epithelial hyperplasia was recognized as an increase in epithelial cells within normal-appearing gland profiles, primarily reflected by stratification of epithelial cells and increased presence of epithelial tufting and papillary projections. A severity grade of 0 (not present) through 5 (severe) was assigned to each sample.
# TGF beta mRNA expression = TGF beta mRNA expression in rabbit dermal wound model (Example 5); type: in vivo, New Zealand White rabbits; conditions: 1% intradermal days 15 and 29; Day 42; FIG. 10
# Method: (§2) Test compounds were examined in full-thickness dermal wounds in rabbits. Seven male New Zealand White rabbits, ranging in body weight from 3.03 to 3.40 kg were used in this study. Four wounds were placed on the ventral surface of both ears using an 8 mm skin punch biopsy. Axitinib (1.0%), nintedanib (1.0%), lenvatinib (1.0%), sorafenib (1.0%) and sunitinib (1.0%) were administered by intradermal or intralesional injection on days 15 and 29 following surgery. Animals were euthanized on Day 42 and trauma sites were harvested and divided in half. One half was preserved in formalin for histological examination and the other half frozen for TGF beta analysis.
# TGF beta mRNA expression in treated trauma samples was compared to expression in untreated samples. In general, TGF beta expression in treated samples was lower relative to untreated trauma samples.
# [4] = test system: TGF beta 1 protein levels; experiment: TGF beta 1 protein level (ELISA) in pig linear incision wound model (Example 6); type: in vivo, Gottingen minipigs; conditions: 16 mg per wound site intradermal; Days 4, 7 and 9; FIG. 11
# Method: Full-thickness linear incision wounds were created in Gottingen minipigs on Day 1. 10 wounds approximately 3 cm in length and spaced at least 5 cm apart were created on the dorsal surface of the animals, perpendicular to the spine. Test agents included nintedanib (2%), lenvatinib (2%), sorafenib (1%), axitinib (2%) and vehicle control. Test agents were administered by intradermal injection immediately after wound creation. The dose of nintedanib, lenvatinib, sorafenib, or axitinib was 16 mg per wound site. Three minipigs were dosed in a similar manner. One minipig was sacrificed on Day 4, one on Day 7, and one on Day 9.
# At the time of sacrifice, two dermal punch biopsies (4 mm) from each side of the wound sites were collected. Two biopsies were flash frozen in liquid nitrogen and stored at −80° C. prior to processing by protein extraction and ELISA (enzyme-linked immunosorbent assay) analysis. TGF beta protein levels were measured on Days 4, 7 and 9.
# [5] = test system: full-thickness dermal wounds; experiment: full-thickness dermal wounds in rabbit ear, histopathology (Example 5); type: in vivo, New Zealand White rabbits; set-up: average total score of test wounds lower than untreated/control wounds by / Neovascularization (histopathology score, treated mean) / Fibrosis/Collagen (histopathology score, treated mean) / Reepithelialization (histopathology score, treated mean) / Total Score (histopathology, treated mean): scale not given here
# Method: as §2, with “analysis. Tissue H&E staining was evaluated semi-quantitatively for inflammation and neovascularization. Tissue fibrosis and collagen organization were evaluated by Mason's trichrome staining. Scores for four intradermal sites receiving test articles were averaged for each rabbit. Most scar tissues were composed of neovascularization, fibroblast hyperplasia, collagen disorganization and re-epithelialization.” for “analysis.”
# [6] = 1% intradermal dosing days 15 and 29, Day 42, rabbit ear wound
# [7] = 1% intradermal, rabbit ear wound
compound,measurement,setting,value
COc1cc2nccc(Oc3ccc(NC(=O)NC4CC4)c(Cl)c3)c2cc1C(N)=O [lenvatinib],TGFb1 mRNA expression relative to LL37 alone (without treatment),TGFb-1 mRNA expression,79%
same,TGFb-1 mRNA expression among all treatment groups,TGFb-1 mRNA expression,lowest TGFb-1 mRNA expression
same,areas of neovascularization on the corneal surface,"[1]; 0.3% topical 35 μL/eye three times daily for 10 days, FIG. 8",efficacious in reducing the areas of neovascularization
same,fibroplasia and/or collagen density (histological staining),"[1]; 0.3% topical three times daily for 10 days, Day 11, FIG. 9",significantly reduced fibroplasia and/or collagen density
same,alpha SMA staining (immunohistochemical analysis),"[1]; 0.3% topical three times daily for 10 days, relative to vehicle, FIG. 9",significantly reduced alpha SMA staining
same,inflammation scores (inflammatory cell infiltrate),[2],prominent reductions in the scores of inflammation
same,inhibition of cellular proliferation in testosterone/phenylephrine induced benign prostate hyperplasia model,"[3]; 1% intra-prostate days 1 and 18, rat",effective inhibitors of cellular proliferation
same,"epithelial (glandular) hyperplasia score, dorsolateral prostate, representative image","[3]; TE+PE induced rats, intra-prostate 0.4 ml days 1 and 18, day 32, grade 0 (not present) to 5 (severe), induced vehicle score=4, FIG. 4",2
same,"epithelial (glandular) hyperplasia score, ventral prostate, representative image","[3]; TE+PE induced rats, intra-prostate 0.4 ml days 1 and 18, day 32, grade 0 to 5, induced vehicle score=4, FIG. 5",3
same,mean folds of TGF beta mRNA expression vs untreated trauma samples,TGF beta mRNA expression,lower than the expression level in untreated trauma samples
same,TGF beta 1 protein levels in wound,[4],time-dependent inhibition of TGF beta 1 protein levels
same,"Fibrosis/Collagen (histopathology score, treated mean)",[5]; [6],2.5
same,"Neovascularization (histopathology score, treated mean)",[5]; [6],2
same,"Reepithelialization (histopathology score, treated mean)",[5]; [6],0
same,"Total Score (histopathology, treated mean)",[5]; [6],4.5
same,average total score of test wounds lower than untreated/control wounds by,"[5]; 1% intradermal, difference treated vs control",0.5
same,angiogenesis and fibrosis at treated trauma sites (histopathology summary),[5]; [7],decreased angiogenesis and fibrosis
same,fibrosis compared with control wound sites,[5]; [7],decreased fibrosis compared to control wound sites
